From patent US9346832B2, “Gold complexes for use in the treatment of cancer” (University of Kwazulu-Natal, priority 2010, dated 2016)
Entries after “also recorded” stand apart in the source; their conditions may differ. Where two headings read alike, the source gives them in different places.

How the values were obtained:
[1] = tested on: 60 human cancer cell lines; experiment: NCI-60 five-dose screen, mean cytotoxicity over 60 human cancer cell lines; type: cell-based
Method: The gold(III) complexes of this invention were screened by the National Cancer Institute (NCI, USA) against their panel of 60 different human cancer cell lines. These screens initially entail a one-dose test for the compound at a high concentration (10 μM; e.g. FIGS. 5, 6 and 7). Compounds with a good cytotoxicity profile in the one-dose screen are then subjected to a five-dose screen for the full panel of sixty human cancer cell lines (the so-called 5-dose NCI-60 screen). In the full five-dose screen, the compound concentration is varied in five doses from 10^−8 M to 10^−4 M in order to establish a dose-response function of percentage cell growth versus the concentration of the test agent. […] Similar data will shortly be available for compounds 1.1Y^1b and 1.5Y^1a as these derivatives are in 5-dose screens currently at the NCI.
The mean cytotoxicity data summarized in Scheme 7 were compiled over 60 human cancer cell lines from the NCI database. […] The dose-response curves for the bis(pyrrolide-imine) chelates of the invention are steeper, or harder, than those of all the compounds compared in Scheme 7.

topoisomerase II = topoisomerase II (Homo sapiens, UniProt P11388); experiment: Topoisomerase II DNA cleavage/relaxation assay, supercoiled plasmid DNA, EB gel (TopoGEN protocol); type: biochemical
Sequence of topoisomerase II (P11388 whole entry): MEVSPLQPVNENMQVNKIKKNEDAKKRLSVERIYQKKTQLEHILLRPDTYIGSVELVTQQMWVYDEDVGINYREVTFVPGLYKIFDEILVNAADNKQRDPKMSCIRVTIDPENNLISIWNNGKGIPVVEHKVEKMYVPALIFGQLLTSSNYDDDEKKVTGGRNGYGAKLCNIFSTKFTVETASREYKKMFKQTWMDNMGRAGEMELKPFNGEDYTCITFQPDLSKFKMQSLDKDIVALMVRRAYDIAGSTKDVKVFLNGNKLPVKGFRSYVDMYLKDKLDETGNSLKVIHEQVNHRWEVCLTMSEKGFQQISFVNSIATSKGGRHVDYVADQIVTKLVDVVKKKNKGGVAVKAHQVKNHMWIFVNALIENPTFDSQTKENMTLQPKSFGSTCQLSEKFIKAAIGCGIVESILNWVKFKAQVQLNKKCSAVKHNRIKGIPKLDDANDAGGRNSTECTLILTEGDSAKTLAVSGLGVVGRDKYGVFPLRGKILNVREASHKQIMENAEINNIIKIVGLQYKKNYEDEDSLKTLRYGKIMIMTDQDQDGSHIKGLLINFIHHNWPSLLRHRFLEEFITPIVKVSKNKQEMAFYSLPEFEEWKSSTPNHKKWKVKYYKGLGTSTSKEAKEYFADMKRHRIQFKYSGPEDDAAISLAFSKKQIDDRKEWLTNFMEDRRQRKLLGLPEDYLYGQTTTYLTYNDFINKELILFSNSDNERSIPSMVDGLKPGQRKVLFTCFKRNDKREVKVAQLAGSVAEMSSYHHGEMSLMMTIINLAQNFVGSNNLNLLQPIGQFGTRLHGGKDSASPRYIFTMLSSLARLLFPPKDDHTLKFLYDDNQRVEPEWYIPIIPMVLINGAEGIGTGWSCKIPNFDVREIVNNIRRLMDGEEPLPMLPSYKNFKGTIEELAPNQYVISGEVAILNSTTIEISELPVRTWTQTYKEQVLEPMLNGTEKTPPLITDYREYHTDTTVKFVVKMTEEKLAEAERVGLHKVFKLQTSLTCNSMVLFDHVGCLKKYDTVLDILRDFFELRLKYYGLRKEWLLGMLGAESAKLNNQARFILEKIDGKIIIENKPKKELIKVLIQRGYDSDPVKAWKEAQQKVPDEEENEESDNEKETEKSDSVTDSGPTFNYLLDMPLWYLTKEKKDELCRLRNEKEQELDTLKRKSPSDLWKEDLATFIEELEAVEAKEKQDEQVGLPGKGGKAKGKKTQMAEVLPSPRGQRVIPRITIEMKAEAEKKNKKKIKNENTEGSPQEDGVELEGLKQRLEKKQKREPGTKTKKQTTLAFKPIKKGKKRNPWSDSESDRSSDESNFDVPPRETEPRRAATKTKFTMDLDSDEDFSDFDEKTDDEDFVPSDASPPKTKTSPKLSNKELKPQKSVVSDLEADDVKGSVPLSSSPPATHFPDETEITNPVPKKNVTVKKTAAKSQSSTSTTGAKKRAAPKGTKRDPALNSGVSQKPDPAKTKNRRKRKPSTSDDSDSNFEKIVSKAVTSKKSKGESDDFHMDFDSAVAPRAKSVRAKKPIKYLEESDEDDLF
Method: The compound MA_AuPr clearly targets topoisomerase II if the statistical analysis of the NCI data for a range of drugs shown in FIG. 13 is correct. MA_AuPr was therefore assayed for its action against topoisomerase II in vitro using TopoGEN's standard protocol over a wide range of test agent concentrations (0.005 to 500 μM) in order to obtain direct experimental proof for the apparent cellular target of the compound to ensure that a fundamental understanding of the mechanism of action of this new class of Au(III) compounds exists. These experiments were performed by the company TopoGEN and at the University of Central Florida. The DNA cleavage experiments were performed in vitro using purified topoisomerase I and II enzymes and supercoiled plasmid DNA as the substrate. The controls that were used in the experiment were linear marker DNA as well as reactions without the gold(III) complex and high concentrations of VP16. The compound VP16 (etoposide) is a commercially available DNA intercalator chemotherapeutic agent, widely used in the treatment of lung and testicular cancers as well as lymphomas. The choice of VP16 as a control is based on the fact that it is a poor topoisomerase II inhibitor, but is a powerful topoisomerase II poison which arrests the enzyme's cycle at the ternary drug-enzyme-DNA cleavage complex stage, leading to observation of linear DNA fragments upon SDS denaturation of the enzyme (i.e., work-up). Comparison of the VP16 results with the results of MA_AuPr would therefore give a good indication of whether the gold(III) chelate is an inhibitor or a poison.
Lane 1 of the gel (FIG. 14) is the control experiment with only supercoiled plasmid DNA present. The control contains no topoisomerase II and so the DNA supercoiled structure cannot be relaxed, as the topoisomerase II enzyme would usually do. […] At a higher concentration of the test agent (50 μM), both supercoiled plasmid DNA and linear cleavage products are observed. […] At very high concentrations (>500 μM), MA_AuPr behaves exclusively as a catalytic inhibitor of the enzyme.
The role of gold(III) in the efficacy of the compound was determined by modifying the structure of MA_AuPr by replacing the Au(III) cation with Pd(II) to afford MA_PdPr (the isoelectronic square planar coordination complex of known structure and geometry^31) and carrying out the DNA relaxation assay with topoisomerase II as before. The metal-free ligand (MA_H2PrLig) was tested under identical conditions to confirm that the mechanism of action is related to the intact structure of the metal chelate.

Microsomal clearance = type: in vitro ADME; conditions: microsomes
From the text: (§1) First, the compound is not genotoxic (i.e. mutagenic).

plasma protein = experiment: Plasma protein binding; type: in vitro ADME; conditions: LC-MS
From the text: (§2) This is why binding to DNA of the intact chelate occurs (FIGS. 14 and 20). However, it is noteworthy that hydrolysis of a Au(III)-Npyrrole bond is a reaction that may be catalyzed by enzymes in plasma and could account for the plasma instability of MA_AuPr.

Genotoxicity = experiment: Genotoxicity
From the text: as §1

[2] = tested on: HepG2 human hepatocellular carcinoma cells; experiment: HepG2 cytotoxicity / cell health parameters; type: cell-based
From the text: The data for MA_AuPr in Scheme 22 are consistent with a cytotoxic compound capable of inducing apoptosis (programmed cell death) and, indeed, a compound that performs better than the control drug. […] Other cell health parameters which respond are a loss of total cells per well (indicating toxicity due to necrosis, apoptosis or a reduction in cellular proliferation), an increase in nuclear area (indicating necrosis or G2 cell cycle arrest), an increase in cytochrome c release (implying activation of a signalling cascade leading to apoptosis). The latter is particularly relevant as we may rule out cell death by necrosis in the case of MA_AuPr. The mechanism of action of the compound thus leads to cell cycle arrest in the G2 phase and the induction of apoptosis (highly desirable for an anticancer drug). […] Since the compound induces cytochrome c release, cytotoxicity involves apoptosis.

[3] = Hydrolysis in aqueous solution; type: physicochemical; conditions: aqueous / phosphate buffered aqueous solutions
From the text: as §2

[4] = tested on: 3LL tumor (Lewis lung carcinoma); experiment: 3LL tumor growth in black mice

## C1=NCCCN=Cc2ccc[n]2[Au+][n]2cccc21.[Cl-] [MA_AuPr, 2,2′-{propane-1,3-diylbis[nitrilo(E)methylylidene]}bis(pyrrol-1-ido)gold(III) chloride]
[1]; 60 human cancer cell lines
  fraction of cancer cell lines equivalently or more susceptible than to cisplatin: ca. 25%
[1]; mean over 60 human cancer cell lines, 50% cell death, read-out: LC50 (the source's name)
  CC50: 49 µM
[1]; mean over 60 human cancer cell lines, 50% growth inhibition
  GI50: 7 µM
[1]; mean over 60 human cancer cell lines, 100% (total) growth inhibition, read-out: TGI or IC50
  TGI (concentration for total growth inhibition): 20 µM
[1]; on average over the full 60 cell lines
  increase in concentration from 50% growth inhibition to 50% cell kill: 7 fold
[1]; plot of −log(GI50/M) versus cisplatin, FIG. 10
  growth inhibition activity relative to cisplatin, on average: 95%
Topoisomerase II
  concentration at which compound behaves exclusively as catalytic inhibitor: > 500 µM
Topoisomerase II; compared with VP-16 (etoposide)
  action on topoisomerase II: both a poison and a catalytic topoisomerase II inhibitor
Topoisomerase II; supercoiled plasmid DNA not relaxed
  concentration of catalytic inhibition of topoisomerase II: 50 µM
Topoisomerase II; supercoiled plasmid DNA, linear cleavage products
  concentration at which topoisomerase II poisoning (DNA cleavage induction) is observed: 0.5 µM
Microsomal clearance
  Microsomal clearance t1/2: t1/2 < 10 min
Plasma protein
  Plasma protein binding: did not bind to plasma protein; also recorded: No binding - drug
Genotoxicity
  Genotoxicity: not genotoxic; also recorded: Negative
[2]
  Cytotoxicity (Hep-G2): Strong positive
[2]; HepG2
  Cytochrome C release MEC: 19 µM
  DNA structure MEC: >19 µM
  Mitochondrial mass MEC: 2.1 µM
  Mitochondrial membrane potential MEC: 6.2 µM
  Nuclear Area MEC: 6.2 µM
[2]; HepG2, minimum effective concentration
  Cell Loss MEC: <0.23 µM
[2]; HepG2, read-out: Cell Loss AC50
  AC50: 7.4 µM
[2]; HepG2, read-out: Cytochrome C release AC50
  AC50: 33 µM
[2]; HepG2, read-out: Membrane permeability AC50
  AC50: 16 µM
[2]; HepG2, read-out: Mitochondrial mass AC50
  AC50: 41 µM
[2]; HepG2, read-out: Mitochondrial membrane potential AC50
  AC50: > 500 µM
[2]; HepG2, read-out: Nuclear Area AC50
  AC50: 17 µM
[3]
  hydrolysis: did not show hydrolysis
[4]; 3LL tumors, 20 days
  in vivo performance relative to cisplatin: about 43%
[4]; after 20 days, 20 μmol/kg twice weekly
  reduction of 3LL tumor growth rate relative to control: about 33%
